AC50 data for 17 compounds are collected here from ChEMBL document CHEMBL5291721, “A preclinical secondary pharmacology resource illuminates target-adverse drug reaction associations of marketed drugs” (Nat Commun, 2023).

Experiment [1] concerns the target Mu-type opioid receptor (Homo sapiens, UniProt P35372). Nature of the experiment: biochemical. In kind it is functional.
The target of experiment [2] is T1, Gamma-aminobutyric acid receptor subunit alpha-1 (Rattus norvegicus, UniProt P62813). Type of experiment: functional.
T1 sequence (P62813 whole entry): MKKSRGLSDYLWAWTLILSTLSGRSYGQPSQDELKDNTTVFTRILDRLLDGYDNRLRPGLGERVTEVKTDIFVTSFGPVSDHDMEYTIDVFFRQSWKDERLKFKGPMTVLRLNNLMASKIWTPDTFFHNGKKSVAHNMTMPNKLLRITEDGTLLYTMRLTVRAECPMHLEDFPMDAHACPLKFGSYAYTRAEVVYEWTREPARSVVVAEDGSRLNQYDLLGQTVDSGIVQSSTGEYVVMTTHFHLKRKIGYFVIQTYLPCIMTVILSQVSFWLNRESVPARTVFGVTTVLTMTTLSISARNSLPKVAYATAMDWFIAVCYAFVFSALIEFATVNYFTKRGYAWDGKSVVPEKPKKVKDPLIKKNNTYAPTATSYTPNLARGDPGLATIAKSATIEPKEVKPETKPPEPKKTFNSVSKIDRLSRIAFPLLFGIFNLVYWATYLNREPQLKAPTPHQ
In experiment [3] the target is T2, Gastrin/cholecystokinin type B receptor (Homo sapiens, UniProt P32239).
T2 sequence (P32239 whole entry): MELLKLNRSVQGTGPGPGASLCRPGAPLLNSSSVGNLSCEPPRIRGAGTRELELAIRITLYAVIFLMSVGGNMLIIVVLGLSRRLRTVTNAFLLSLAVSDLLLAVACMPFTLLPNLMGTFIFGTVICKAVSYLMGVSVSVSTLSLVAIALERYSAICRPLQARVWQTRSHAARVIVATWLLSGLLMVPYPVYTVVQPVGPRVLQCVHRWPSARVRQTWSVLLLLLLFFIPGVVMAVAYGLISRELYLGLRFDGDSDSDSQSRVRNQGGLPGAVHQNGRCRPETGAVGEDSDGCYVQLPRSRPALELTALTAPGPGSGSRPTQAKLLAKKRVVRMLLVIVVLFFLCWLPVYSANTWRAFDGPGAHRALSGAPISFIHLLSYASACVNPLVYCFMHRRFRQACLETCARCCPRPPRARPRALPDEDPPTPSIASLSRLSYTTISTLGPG

Experiment [4] has as its target T3, 5-hydroxytryptamine receptor 2C (Homo sapiens, UniProt P28335).
T3 sequence (P28335 whole entry): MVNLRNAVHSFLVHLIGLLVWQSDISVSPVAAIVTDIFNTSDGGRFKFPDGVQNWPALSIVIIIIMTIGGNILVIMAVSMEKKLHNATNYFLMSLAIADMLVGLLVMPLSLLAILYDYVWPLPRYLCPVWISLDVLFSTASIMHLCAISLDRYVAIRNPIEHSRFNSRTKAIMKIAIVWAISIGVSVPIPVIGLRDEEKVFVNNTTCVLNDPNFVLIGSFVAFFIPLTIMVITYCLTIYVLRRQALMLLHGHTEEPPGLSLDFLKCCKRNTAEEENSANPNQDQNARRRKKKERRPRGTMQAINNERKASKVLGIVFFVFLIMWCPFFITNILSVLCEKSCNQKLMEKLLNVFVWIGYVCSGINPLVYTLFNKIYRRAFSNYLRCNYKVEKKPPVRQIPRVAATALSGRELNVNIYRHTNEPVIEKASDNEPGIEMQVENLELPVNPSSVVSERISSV

In experiment [5] the target is T4, 5-hydroxytryptamine receptor 1A (Homo sapiens, UniProt P08908).
T4 sequence (P08908 whole entry): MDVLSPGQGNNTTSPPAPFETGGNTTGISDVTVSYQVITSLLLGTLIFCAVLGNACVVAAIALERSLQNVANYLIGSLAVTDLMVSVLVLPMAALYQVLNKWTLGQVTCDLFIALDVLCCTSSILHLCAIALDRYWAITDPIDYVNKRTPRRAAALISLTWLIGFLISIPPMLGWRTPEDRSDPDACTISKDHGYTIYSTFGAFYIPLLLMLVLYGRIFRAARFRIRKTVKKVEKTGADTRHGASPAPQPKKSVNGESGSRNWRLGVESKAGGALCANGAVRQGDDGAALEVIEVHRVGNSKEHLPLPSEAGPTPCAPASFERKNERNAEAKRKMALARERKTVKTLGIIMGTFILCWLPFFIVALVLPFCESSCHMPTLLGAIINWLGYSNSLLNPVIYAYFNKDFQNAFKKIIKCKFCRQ
Type of experiment: functional, cell-based.

The target in experiment [6] is T5, Alpha-2A adrenergic receptor (Homo sapiens, UniProt P08913).
T5 sequence (P08913 whole entry): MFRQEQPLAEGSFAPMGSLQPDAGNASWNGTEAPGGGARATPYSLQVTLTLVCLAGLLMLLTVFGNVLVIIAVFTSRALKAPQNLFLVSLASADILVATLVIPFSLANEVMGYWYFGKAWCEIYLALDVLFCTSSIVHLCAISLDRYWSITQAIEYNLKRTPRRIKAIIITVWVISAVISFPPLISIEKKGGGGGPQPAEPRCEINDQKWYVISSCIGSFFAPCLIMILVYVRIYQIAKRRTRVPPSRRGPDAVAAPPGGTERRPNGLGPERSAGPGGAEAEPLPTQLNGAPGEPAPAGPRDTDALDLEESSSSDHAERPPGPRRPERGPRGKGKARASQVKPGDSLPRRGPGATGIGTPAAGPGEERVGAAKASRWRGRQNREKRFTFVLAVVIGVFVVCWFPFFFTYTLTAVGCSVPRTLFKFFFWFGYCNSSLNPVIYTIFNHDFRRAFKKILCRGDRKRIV
Type of experiment: functional, cell-based.

Experiment [7] concerns the target Kappa-type opioid receptor (Homo sapiens, UniProt P41145).
Experiment [8] deals with T1, Gamma-aminobutyric acid receptor subunit alpha-1.
Experiment [9] concerns the target T6, B1 bradykinin receptor (Homo sapiens, UniProt P46663).
T6 sequence (P46663 whole entry): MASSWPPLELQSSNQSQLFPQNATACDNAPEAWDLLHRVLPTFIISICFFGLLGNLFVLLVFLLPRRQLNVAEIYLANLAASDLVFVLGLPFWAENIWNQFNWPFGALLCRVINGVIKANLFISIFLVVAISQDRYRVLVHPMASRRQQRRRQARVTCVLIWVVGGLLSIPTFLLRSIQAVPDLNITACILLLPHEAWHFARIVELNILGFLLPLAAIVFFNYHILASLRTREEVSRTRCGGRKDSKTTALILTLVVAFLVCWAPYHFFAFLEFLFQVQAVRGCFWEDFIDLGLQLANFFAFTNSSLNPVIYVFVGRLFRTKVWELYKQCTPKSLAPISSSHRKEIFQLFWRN

Experiment [10] concerns the target Glucagon receptor (Homo sapiens, UniProt P47871).
Experiment [11] concerns the target T5, Alpha-2A adrenergic receptor.
Experiment [12] addresses Substance-P receptor (Homo sapiens, UniProt P25103).

Where only a bound is given, the exact number is not on record here.
Note: assay procedure not described here.

Kappa-type opioid receptor, sequence (P41145 whole entry): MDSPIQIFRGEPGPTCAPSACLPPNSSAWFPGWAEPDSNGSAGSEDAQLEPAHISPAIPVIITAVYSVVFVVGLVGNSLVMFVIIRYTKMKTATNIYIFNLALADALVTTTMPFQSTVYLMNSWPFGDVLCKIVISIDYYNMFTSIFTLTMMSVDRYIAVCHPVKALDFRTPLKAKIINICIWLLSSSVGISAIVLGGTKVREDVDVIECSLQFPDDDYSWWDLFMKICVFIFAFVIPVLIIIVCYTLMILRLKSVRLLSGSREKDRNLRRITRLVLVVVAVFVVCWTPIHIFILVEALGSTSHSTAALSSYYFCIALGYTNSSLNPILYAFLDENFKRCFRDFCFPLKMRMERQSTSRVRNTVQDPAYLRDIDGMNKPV
Substance-P receptor, sequence (P25103 whole entry): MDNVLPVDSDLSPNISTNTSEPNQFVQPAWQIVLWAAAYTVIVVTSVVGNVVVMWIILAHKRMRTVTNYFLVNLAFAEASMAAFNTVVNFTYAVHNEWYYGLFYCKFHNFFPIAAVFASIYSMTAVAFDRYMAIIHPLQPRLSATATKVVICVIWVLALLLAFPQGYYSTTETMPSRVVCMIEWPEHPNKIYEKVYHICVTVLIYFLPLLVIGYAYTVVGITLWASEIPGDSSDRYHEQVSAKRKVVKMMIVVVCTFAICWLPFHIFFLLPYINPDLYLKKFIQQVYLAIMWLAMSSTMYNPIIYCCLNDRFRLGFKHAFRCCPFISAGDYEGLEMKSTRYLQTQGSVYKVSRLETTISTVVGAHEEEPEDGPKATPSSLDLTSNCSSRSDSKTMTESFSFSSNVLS
Glucagon receptor, sequence (P47871 whole entry): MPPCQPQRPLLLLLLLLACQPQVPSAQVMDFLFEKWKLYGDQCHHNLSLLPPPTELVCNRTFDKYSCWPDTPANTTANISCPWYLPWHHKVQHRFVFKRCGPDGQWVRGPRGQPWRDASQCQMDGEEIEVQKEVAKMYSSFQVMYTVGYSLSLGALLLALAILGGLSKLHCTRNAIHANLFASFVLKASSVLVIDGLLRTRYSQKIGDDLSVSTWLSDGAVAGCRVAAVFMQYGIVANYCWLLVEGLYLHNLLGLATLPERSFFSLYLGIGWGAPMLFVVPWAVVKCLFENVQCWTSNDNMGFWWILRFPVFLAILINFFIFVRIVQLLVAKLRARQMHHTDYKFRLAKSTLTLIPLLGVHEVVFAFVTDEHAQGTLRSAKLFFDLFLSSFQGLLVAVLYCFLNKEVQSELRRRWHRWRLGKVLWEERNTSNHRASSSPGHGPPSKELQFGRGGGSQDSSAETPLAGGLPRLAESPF
Mu-type opioid receptor, sequence (P35372 whole entry): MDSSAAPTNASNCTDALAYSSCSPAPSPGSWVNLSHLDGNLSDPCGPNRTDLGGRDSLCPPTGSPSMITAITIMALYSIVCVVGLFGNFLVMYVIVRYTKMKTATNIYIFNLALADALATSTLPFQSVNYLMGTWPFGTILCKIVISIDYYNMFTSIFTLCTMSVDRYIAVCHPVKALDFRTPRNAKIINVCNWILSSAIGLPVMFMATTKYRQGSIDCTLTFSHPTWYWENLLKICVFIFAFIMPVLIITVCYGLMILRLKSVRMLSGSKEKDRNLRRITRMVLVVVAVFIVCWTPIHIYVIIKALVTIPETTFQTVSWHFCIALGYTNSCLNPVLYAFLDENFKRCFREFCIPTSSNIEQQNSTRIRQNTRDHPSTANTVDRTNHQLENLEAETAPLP

Consider `CC[C@@H](C(N)=O)N1CCCC1=O`, for which the half-maximal activity concentration (AC50) in experiment [1], in experiment [2], in experiment [3], in experiment [4], in experiment [5] and in experiment [6] was greater than 30 µM in each case. For the same compound, the concentration at half-maximal activity (AC50) (commonly the concentration giving half of the maximal activity seen) in [7] is greater than 30 µM.

Compound `CCC(CC)(CC(=O)Nc1cccc(/C=C/c2nc(C3CCC3)cs2)c1)C(=O)O` showed an AC50 in [3] greater than 30 µM.

`CCCC1O[C@@H]2C[C@H]3[C@@H]4CCC5=CC(=O)C=C[C@]5(C)[C@H]4[C@@H](O)C[C@]3(C)[C@]2(C(=O)CO)O1` (stereo partly specified) [BUDESONIDE]: the concentration at half-maximal activity (AC50) in experiment [2] is greater than 10 µM; in experiment [4], greater than 30 µM; in experiment [8], greater than 10 µM; in experiment [5] it was greater than 10 µM; in [6] it was greater than 10 µM; in experiment [7] it was greater than 10 µM.

For `C=CCN1C[C@H](C(=O)N(CCCN(C)C)C(=O)NCC)C[C@@H]2c3cccc4[nH]cc(c34)C[C@H]21` [CABERGOLINE], the concentration at half-maximal activity (AC50) in [2] was greater than 10 µM; in [4], greater than 30 µM; in experiment [8], greater than 10 µM; in experiment [5], 0.162 µM; in experiment [7], greater than 10 µM.

Turning to `CN1CCN(C2=Nc3ccccc3Sc3ccc(Cl)cc32)CC1` [CLOTHIAPINE], the AC50 in experiment [1] was 11 µM; in experiment [2], greater than 30 µM; in [4], 0.8 µM; in [8], greater than 30 µM; in [5] it was greater than 30 µM; in [6] it was greater than 30 µM. For the same compound, the half-maximal activity concentration (AC50) in [7] is greater than 30 µM.

In the case of `CN(C)CCC=C1c2ccccc2C=Cc2ccccc21` [CYCLOBENZAPRINE], the concentration at half-maximal activity (AC50) in [2] is greater than 10 µM; in [9], greater than 30 µM; in [10] it was greater than 30 µM; in experiment [3], greater than 30 µM; in [4] it was 0.88 µM; in experiment [8] it was greater than 10 µM. Also, the AC50 in experiment [5] and in experiment [6] was greater than 10 µM each time.

For the compound `CCOc1ccc(Cc2cc([C@@H]3O[C@H](CO)[C@@H](O)[C@H](O)[C@H]3O)ccc2Cl)cc1` [DAPAGLIFLOZIN], the AC50 in experiment [2] was greater than 10 µM; in [3] it was greater than 30 µM; in [11], 8.66 µM; in experiment [4] it was greater than 30 µM; in [8] it was greater than 10 µM; in [7], greater than 10 µM.

Take `CN(C)CC/C=C1\c2ccccc2CSc2ccccc21` [DOTHIEPIN]: the AC50 in experiment [1] is greater than 30 µM; in experiment [2], greater than 30 µM; in [3], greater than 30 µM; in [4], 1.6 µM; in experiment [8] it was greater than 30 µM; in experiment [5], greater than 30 µM. The compound also yielded an AC50 in [6] greater than 30 µM.

As to `CC[C@H]1CN2CCc3cc(OC)c(OC)cc3[C@@H]2C[C@@H]1C[C@H]1NCCc2cc(OC)c(OC)cc21` [EMETINE], the concentration at half-maximal activity (AC50) in experiment [1], in experiment [2], in experiment [3], in [4], in [8] and in [5] was greater than 30 µM each time. Further, the concentration at half-maximal activity (AC50) in [6] and in experiment [7] was greater than 30 µM in each case.

As to `Cc1cc(C)c(NC(=O)CN(CC(=O)O)CC(=O)O)c(C)c1Br` [MEBROFENIN], the AC50 in experiment [1], in experiment [2], in experiment [4], in experiment [8], in experiment [6] and in [7] was greater than 30 µM throughout.

With `COc1ccccc1N1CCN(CC(O)COc2cccc3ccccc23)CC1` (stereo unspecified) [NAFTOPIDIL], the AC50 in experiment [1] is 26 µM; in experiment [2], greater than 30 µM; in experiment [4], greater than 30 µM; in experiment [8] it was greater than 30 µM; in experiment [5], greater than 30 µM; in experiment [6] it was greater than 30 µM. Half-maximal activity in experiment [7] (AC50) was put at 2.2 µM.

Turning to `COc1cc2nc(N3CCN(C(=O)c4ccco4)CC3)nc(N)c2cc1OC` [PRAZOSIN], the half-maximal activity concentration (AC50) in experiment [1] is greater than 30 µM; in [2] it was greater than 10 µM; in experiment [9] it was greater than 30 µM; in experiment [12], greater than 10 µM; in [10], greater than 30 µM; in experiment [3] it was greater than 30 µM. Besides, the AC50 in experiment [4] is greater than 30 µM; in experiment [8] it was greater than 10 µM; in experiment [7] it was 4.94 µM.

As for `O=[N+]([O-])c1cn2c(n1)OC[C@@H](OCc1ccc(OC(F)(F)F)cc1)C2` [PRETOMANID], the AC50 in experiment [2] was greater than 10 µM; in [9], greater than 30 µM; in experiment [12], greater than 10 µM; in experiment [10], greater than 30 µM; in experiment [3], greater than 30 µM; in experiment [11], greater than 10 µM. In addition, the half-maximal activity concentration (AC50) in experiment [4], in [8] and in experiment [7] was greater than 10 µM in each case.

On to `Cc1oc(=O)oc1CN1CCN(c2cc3c(cc2F)c(=O)c(C(=O)O)c2n3C(C)S2)CC1` (stereo unspecified) [PRULIFLOXACIN], for which the concentration at half-maximal activity (AC50) in experiment [1], in experiment [2], in experiment [4], in experiment [8], in experiment [6] and in experiment [7] was greater than 30 µM each time.

Take `COC1=C(OC)C(=O)C(C/C=C(\C)CC/C=C(\C)CC/C=C(\C)CC/C=C(\C)CC/C=C(\C)CC/C=C(\C)CC/C=C(\C)CC/C=C(\C)CC/C=C(\C)CCC=C(C)C)=C(C)C1=O` [UBIDECARENONE]: the AC50 in experiment [1], in experiment [2], in [4], in [8], in experiment [5] and in [6] was greater than 30 µM throughout. Also, the concentration at half-maximal activity (AC50) in experiment [7] was greater than 30 µM.

In the case of `CCOc1ccccc1OCC1CNCCO1` (stereo unspecified) [VILOXAZINE], the AC50 in experiment [2] was greater than 10 µM; in experiment [9], greater than 30 µM; in experiment [12], greater than 10 µM; in [10], greater than 30 µM; in [3], greater than 30 µM; in [11], greater than 10 µM. The AC50 in experiment [8], in [5], in experiment [6] and in experiment [7] was greater than 10 µM in each case.

For the compound `CN(C)CCc1c[nH]c2ccc(C[C@H]3COC(=O)N3)cc12` [ZOLMITRIPTAN], the AC50 in [1], in experiment [2], in [3], in experiment [4], in experiment [8] and in experiment [6] was greater than 30 µM each time. In experiment [7], this compound came in with an AC50 greater than 30 µM.
